Test results: publication PMC12042115 (mLife, 2025)
In brackets after ≈: the same amount, converted by molar mass.

Experiments:
ClpP1P2 = experiment: Jump dilution experiment; format: biochemical, Mycobacterium tuberculosis; settings: 10 µM, 1 h pre‐incubation, diluted to 100 nM, 4‐h course
M. tuberculosis H37Rv = experiment: MIC against Mtb H37Rv; format: cell-based, Mycobacterium tuberculosis; settings: Mycobacterium tuberculosis, H37RV

O=C(Oc1ccc(Cl)cc1)c1ccc(N2CCOCC2)c([N+](=O)[O-])c1 [GDI‐5755]
recovery of peptidase activity after jump dilution (ClpP1P2): did not show recovery of peptidase activity
MIC90 (M. tuberculosis H37Rv): 100 µM (≈ 36.3 µg/mL)
